Results from patent US20040106545A1, “Compounds and methods for modulating cell adhesion” (priority 1996, published 2004).
Entries after “also recorded” stand apart in the source; their conditions may differ.

Legend:
N-CAM = molecular target: T1, N-CAM (Homo sapiens, UniProt P13591); test: Neurite outgrowth on N-CAM expressing 3T3 monolayers (Example 2); format: cell-based, mouse; conditions: 500 μg/mL
T1 construct: expressed in transfected cells; host or cells: 3T3 fibroblasts (monolayer); mouse post-natal day 3 cerebellar neurons on top
T1 sequence (P13591 20-858, species assumed): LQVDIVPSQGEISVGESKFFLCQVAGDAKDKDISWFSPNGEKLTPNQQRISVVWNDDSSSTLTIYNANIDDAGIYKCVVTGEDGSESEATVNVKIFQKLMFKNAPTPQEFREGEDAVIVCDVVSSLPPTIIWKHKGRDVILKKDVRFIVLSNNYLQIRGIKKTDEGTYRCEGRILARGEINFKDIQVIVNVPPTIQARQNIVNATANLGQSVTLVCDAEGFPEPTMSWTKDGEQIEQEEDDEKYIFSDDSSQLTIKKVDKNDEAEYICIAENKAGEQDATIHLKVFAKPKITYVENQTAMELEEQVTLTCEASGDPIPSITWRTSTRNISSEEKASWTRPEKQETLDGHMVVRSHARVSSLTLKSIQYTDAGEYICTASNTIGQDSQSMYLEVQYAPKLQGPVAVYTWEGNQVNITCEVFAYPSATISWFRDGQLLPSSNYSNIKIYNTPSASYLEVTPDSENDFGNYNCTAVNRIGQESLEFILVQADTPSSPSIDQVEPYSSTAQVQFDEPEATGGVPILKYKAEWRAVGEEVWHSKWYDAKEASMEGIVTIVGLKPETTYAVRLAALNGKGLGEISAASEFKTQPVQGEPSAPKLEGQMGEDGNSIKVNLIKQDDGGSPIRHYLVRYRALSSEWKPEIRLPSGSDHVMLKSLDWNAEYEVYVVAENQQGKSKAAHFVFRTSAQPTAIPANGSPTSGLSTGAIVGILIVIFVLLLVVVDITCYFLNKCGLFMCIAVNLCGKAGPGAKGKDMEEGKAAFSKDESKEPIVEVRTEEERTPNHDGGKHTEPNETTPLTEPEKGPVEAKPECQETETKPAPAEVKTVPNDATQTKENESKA

OVCAR-3 = test: Disruption of OVCAR-3 ovarian cancer cell adhesion; format: cell-based, human; conditions: 1, 0.1, or 0.01 mg/ml, up to 48 hours
Description: The human ovarian cancer cell line OVCAR-3, which expresses E-cadherin, was used in these experiments. Cells were cultured in RPMI supplemented with insulin and containing 20% FCS. Cells were grown in T-250 culture flasks and maintained by periodic subculturing. Cells were harvested from flasks and seeded in individual wells of 96-well culture dishes (surface area of each well was 0.32 cm^2) at a density of 50,000 cells per well in 0.1 ml media containing the cyclic peptides (at concentrations of 1, 0.1, or 0.01 mg/ml). Media control wells were also established. Cultures were evaluated periodically by microscopic examination under both bright field and phase contrast conditions, and were maintained for 48 hours.

mice = test: Acute toxicity study in mice; format: in vivo, mouse
Description: Mice were injected intraperitoneally for seven consecutive days with 20 mg/kg of N—Ac-CHAVC-NH2 (SEQ ID NO:10) and sacrificed 24 hr after treatment.
Mice were injected intraperitoneally with 125 mg/kg of N—Ac-CHAVC-NH2 (SEQ ID NO:10) for three consecutive days and sacrificed on the fourth day.
Mice were injected intravenously with either a saline control or 200 mg/kg of N—Ac-CHAVC-NH2 (SEQ ID NO:10). Mice were sacrificed after 24 hours, or allowed a 14-day recovery period.

Rat = test: Acute toxicity study in rat; format: in vivo; conditions: intravenously, 100 mg/kg
control 3T3 cells = test: Neurite outgrowth of rat cerebellar neurons on control 3T3 monolayers (Example 15); format: cell-based; conditions: increasing concentrations (FIG. 23)
Description: Cell culture and neurite outgrowth assays. Co-cultures of cerebellar neurons on monolayers of control 3T3 cells and monolayers of transfected 3T3 cells that express physiological levels of chick N-cadherin or human L1 were established as previously described (Williams et al., Neuron 13:583-594, 1994). In brief, 80,000 3T3 cells (control and transfected) were plated into individual chambers of an eight-chamber tissue culture slide coated with polylysine and fibronectin and cultured in DMEM/10% FCS. After 24 hours, when confluent monolayers had formed, the medium was removed and 3000 cerebellar neurons isolated from post-natal day 2-3 rats were plated into each well in SATO media (Doherty et al., Nature 343:464-466, 1990) supplemented with 2% FCS. All of the test peptides were added immediately before the neurons as a 2× stock prepared in SATO/2% FCS. The co-cultures were maintained for 16-18 hours, at which time they were fixed and immunostained for GAP-43 which is present only in the neurons and delineates the neuritic processes. The mean length of the longest neurite per cell was measured for 150-200 neurons sampled in replicate cultures as previously described (Williams et al., Neuron 13:583-594, 1994). […] Dose-response curves were evaluated and the EC50 values determined.

[1] = system: MKL-F cells, breast cancer tumors; test: Breast cancer tumors grown in nude mice; format: in vivo, mouse
Description: Breast cancer tumors were also grown in nude mice, as described above. After implanting tumor cells into the mammary fat pad, mice were injected once daily for four days with either the representative modulating agent N—Ac-CHAVC-NH2 (SEQ ID NO:10) or saline as a control. Mice were sacrificed 24 hours after the last injection, and tumors were photographed. […] These tumors are well vascularized.
MKL-F cells were injected into mammary fat pad, as described above, and the tumors were grown for 21 days before injection. Mice were then injected once daily for four days with either 20 mg/kg of the representative modulating agent N—Ac-CHAVC-NH2 (SEQ ID NO:10) or saline as a control. Mice were sacrificed 21 days after the last injection. Tumor volume was measured at day 18 following injection of cells, day 22 (following the first injection of modulating agent), and days 29, 32, 36, 39 and 42.

[2] = system: Human saphenous vein vascular smooth muscle cells; test: Vascular smooth muscle cell migration after scrape-wounding; format: cell-based; conditions: 1 mg/mL, 24 hours after wounding
Description: An illustrative assay for evaluating the modulating of vascular smooth muscle cell migration may be performed as follows (as described in Example 23). Human saphenous vein vascular smooth muscle cells are explanted from surplus segments of vein from patients undergoing coronary artery bypass surgery. Cells are maintained in Dulbecco's modified essential medium supplemented with penicillin, streptomycin, L-glutamine and 10% fetal calf serum and are grown to confluence on glass coverslips in the presence or absence of collagen type I. The cell layer is then subjected to scrape-wounding by drawing a fine cell scraper across the coverslip. Proliferation of the vascular smooth muscle cells is inhibited by addition of 2 mM hydroxyurea to the culture media. […] The migratory capacity of the vascular smooth muscle cells is assessed by measuring the distance of migration into the wound area (outermost 100 μm from the wound) using image analysis software at 24 hours after wounding.
Human saphenous vein vascular smooth muscle cells were explanted from surplus segments of vein from patients undergoing coronary artery bypass surgery. […] The migratory capacity of the vascular smooth muscle cells was assessed by measuring the distance of migration into the wound area (outermost 100 μm from the wound) using image analysis software at 24 hours after wounding.

For CC(=O)N[C@H]1CSSC[C@@H](C(N)=O)NC(=O)[C@H](C(C)C)NC(=O)[C@H](C)NC(=O)[C@H](Cc2c[nH]cn2)NC1=O [N—Ac—CHAVC—NH2, N-Ac-Cys-His-Ala-Val-Cys-NH2], the “inhibition of neurite outgrowth on 3T3 cells expressing N-CAM” value (N-CAM) was “did not inhibit neurite outgrowth”, the “disruption of OVCAR-3 adhesion” value (OVCAR-3) was “inactive” and the “gross or histopathological findings” value (mice; intraperitoneally, 125 mg/kg, three consecutive days, sacrificed on the fourth day) was “No gross or histopathological findings related to the treatment were found”. The “gross or histopathological findings” value (mice; intraperitoneally, seven consecutive days, 20 mg/kg, sacrificed 24 hr after treatment) was “No gross or histopathological findings related to the treatment were found”, the mortality (mice; intravenously, 200 mg/kg) was “no animals died during the study” and the “gross or histopathological findings” value (mice; intravenously, 200 mg/kg, sacrificed after 24 hours or 14-day recovery) was “no gross or histopathological findings related to the treatment were found”. For the same molecule, the “gross or histopathological findings” value (Rat) was “no gross or histopathological findings related to the treatment”, the “effect on neurite extension over control 3T3 cells” value (control 3T3 cells) was “had no effect on the basal growth over 3T3 cells; also recorded: no significant effect on neurite extension over control 3T3 cells” and the breast tumor growth ([1]; once daily for four days) was “slow tumor growth”. The “appearance of breast tumors (blood vessels)” value ([1]; once daily for four days (20 mg/kg), 24 hours after last injection) was “extensive rupturing of blood vessels”, the “reduction of vascular smooth muscle cell migration” value ([2]; collagen) was 56±5% and the “reduction of vascular smooth muscle cell migration” value ([2]; glass) was 53±8%.
